Experimental data taken from BigSolDB 2.1.

Compound: Cc1ccc2cc(C)ccc2c1
- solubility (mole fraction) (in cyclohexane, 293.18 K): 0.03
- solubility (mole fraction) (in cyclohexane, 298.86 K): 0.0398
- solubility (mole fraction) (in cyclohexane, 305.57 K): 0.0513
- solubility (mole fraction) (in cyclohexane, 312.3 K): 0.0714
- solubility (mole fraction) (in cyclohexane, 318.76 K): 0.096
- solubility (mole fraction) (in cyclohexane, 323.07 K): 0.115
- solubility (mole fraction) (in cyclohexane, 325.79 K): 0.134
- solubility (mole fraction) (in cyclohexane, 333.08 K): 0.187
- solubility (mole fraction) (in cyclohexane, 339.97 K): 0.253
- solubility (mole fraction) (in ethyl acetate, 287.56 K): 0.0424
- solubility (mole fraction) (in ethyl acetate, 292.27 K): 0.0494
- solubility (mole fraction) (in ethyl acetate, 298.27 K): 0.0585
- solubility (mole fraction) (in ethyl acetate, 305.69 K): 0.0775
- solubility (mole fraction) (in ethyl acetate, 311.52 K): 0.0957
- solubility (mole fraction) (in ethyl acetate, 318.89 K): 0.123
- solubility (mole fraction) (in ethyl acetate, 325.2 K): 0.158
- solubility (mole fraction) (in ethyl acetate, 332.01 K): 0.2
- solubility (mole fraction) (in ethyl acetate, 338.58 K): 0.256
- solubility (mole fraction) (in isooctane, 288.36 K): 0.0234
- solubility (mole fraction) (in isooctane, 293.19 K): 0.0294
- solubility (mole fraction) (in isooctane, 298.62 K): 0.0344
- solubility (mole fraction) (in isooctane, 306.77 K): 0.0487
- solubility (mole fraction) (in isooctane, 315.41 K): 0.0725
- solubility (mole fraction) (in isooctane, 322.03 K): 0.0905
- solubility (mole fraction) (in isooctane, 327.1 K): 0.113
- solubility (mole fraction) (in isooctane, 334.57 K): 0.149
- solubility (mole fraction) (in isooctane, 341.2 K): 0.197
- solubility (mole fraction) (in isopropanol, 286.65 K): 0.0054
- solubility (mole fraction) (in isopropanol, 294.55 K): 0.0072
- solubility (mole fraction) (in isopropanol, 301.45 K): 0.0098
- solubility (mole fraction) (in isopropanol, 309.65 K): 0.0136
- solubility (mole fraction) (in isopropanol, 315.75 K): 0.0174
- solubility (mole fraction) (in isopropanol, 323.22 K): 0.023
- solubility (mole fraction) (in isopropanol, 330.55 K): 0.0297
- solubility (mole fraction) (in isopropanol, 335.95 K): 0.0371
- solubility (mole fraction) (in isopropanol, 341.65 K): 0.0517
- solubility (mole fraction) (in n-heptane, 288.85 K): 0.0289
- solubility (mole fraction) (in n-heptane, 293.58 K): 0.0359
- solubility (mole fraction) (in n-heptane, 298.72 K): 0.0433
- solubility (mole fraction) (in n-heptane, 304.56 K): 0.0529
- solubility (mole fraction) (in n-heptane, 311.77 K): 0.0632
- solubility (mole fraction) (in n-heptane, 317.8 K): 0.0775
- solubility (mole fraction) (in n-heptane, 324.79 K): 0.0979
- solubility (mole fraction) (in n-heptane, 332.39 K): 0.132
- solubility (mole fraction) (in n-heptane, 339.42 K): 0.17
- solubility (mole fraction) (in n-propyl acetate, 286.65 K): 0.0485
- solubility (mole fraction) (in n-propyl acetate, 293.5 K): 0.0638
- solubility (mole fraction) (in n-propyl acetate, 300.85 K): 0.0815
- solubility (mole fraction) (in n-propyl acetate, 307.41 K): 0.103
- solubility (mole fraction) (in n-propyl acetate, 313.85 K): 0.127
- solubility (mole fraction) (in n-propyl acetate, 320.65 K): 0.159
- solubility (mole fraction) (in n-propyl acetate, 328.22 K): 0.206
- solubility (mole fraction) (in n-propyl acetate, 333.46 K): 0.245
- solubility (mole fraction) (in n-propyl acetate, 338.17 K): 0.289
